Consider 13 compounds from patent US10294202B2, “Pyrrolidinones as herbicides” (FMC Corporation, priority 2013, dated 2019).

One assay deals with chickweed. The assay is described as follows: Test D pre-/postemergence herbicide test. The settings on record: for Plant response rating: Chickweed, scale 0 to 100; for Plant response rating, Chickweed: scale 0 to 100 (0 no effect, 100 complete control). Format: in vivo, Stellaria media. The source says: (§1) Seeds of plant species selected from bluegrass (annual bluegrass, Poa annua), blackgrass (Alopecurus myosuroides), canarygrass (littleseed canarygrass, Phalaris minor), chickweed (common chickweed, Stellaria media), galium (catchweed bedstraw, Galium aparine), bromegrass, downy (downy bromegrass, Bromus tectorum), field poppy (Papaver rhoeas), field violet (Viola arvensis), foxtail, green (green foxtail, Setaria viridis), deadnettle (henbit deadnettle, Lamium amplexicaule), ryegrass, Italian (Italian ryegrass, Lolium multiflorum), kochia (Kochia scoparia), lambsquarters (Chenopodium album), oilseed rape (Brassica napus), pigweed (Amaranthus retroflexus), chamomile (scentless chamomile, Matricaria inodora), Russian thistle (Salsola kali), speedwell (bird's-eye speedwell, Veronica persica), barley, spring (spring barley, Hordeum vulgare), wheat, spring (spring wheat, Triticum aestivum), buckwheat, wild (wild buckwheat, Polygonum convolvulus), mustard, wild (wild mustard, Sinapis arvensis), oat, wild (wild oat, Avena fatua), radish, wild (wild radish, Raphanus raphanistrum), […]), barley, winter (winter barley, Hordeum vulgare), and wheat, winter (winter wheat, Triticum aestivum) were planted into a silt loam soil and treated preemergence with test chemicals formulated in a non-phytotoxic solvent mixture which included a surfactant. At the same time, these species were planted in pots containing Redi-Earth® planting medium (Scotts Company, 14111 Scottslawn Road, Marysville, Ohio 43041) comprising spaghnum peat moss, vermiculite, wetting agent and starter nutrients and treated with postemergence applications of the test chemicals formulated in the same manner. Plants ranged in height from 2 to 18 cm (1- to 4-leaf stage). Treated plants and controls were maintained in a controlled growth environment for 7 to 21 days after which time all species were compared to controls and visually evaluated. Plant response ratings, summarized in Table D, are based on a scale of 0 to 100 where 0 is no effect and 100 is complete control. A dash (-) response means no test result.

For a further assay, the system named is bromegrass, downy. Description: Test D pre-/postemergence herbicide test. Format: in vivo, Bromus tectorum. The conditions noted are these: for Plant response rating: Bromegrass, Downy, scale 0 to 100; for Plant response rating, Bromegrass, Downy: scale 0 to 100 (0 no effect, 100 complete control).
Excerpt: as §1

A further assay concerns kochia. The assay is described as follows: Test C pre-/postemergence herbicide test. The class given is in vivo, Kochia scoparia. From the text:
Seeds of plant species selected from blackgrass (Alopecurus myosuroides), ryegrass, Italian (Italian ryegrass, Lolium multiflorum), wheat (winter wheat, Triticum aestivum), galium (catchweed bedstraw, Galium aparine), corn (Zea mays), crabgrass, large (large crabgrass, Digitaria sanguinalis), foxtail, giant (giant foxtail, Setaria faberii), johnsongrass (Sorghum halepense), lambsquarters (Chenopodium album), morningglory (Ipomoea coccinea), nutsedge, yellow (yellow nutsedge, Cyperus esculentus), pigweed (Amaranthus retroflexus), ragweed (common ragweed, Ambrosia elatior), soybean (Glycine max), barnyardgrass (Echinochloa crus-galli), oilseed rape (Brassica napus), waterhemp (common waterhemp, Amaranthus rudis), kochia (Kochia scoparia), oat, wild (wild oat, Avena fatua), surinam grass (Brachiaria decumbens), foxtail, green (green foxtail, Setaria viridis), goosegrass (Eleusine indica), bromegrass, downy (downy bromegrass, Bromus tectorum), nightshade (eastern black nightshade, Solanum ptycanthum), cocklebur (common cocklebur, Xanthium strumarium), cupgrass, woolly (woolly cupgrass, Eriochloa villosa), bermudagrass (Cynodon dactylon), sunflower, (common oilseed sunflower, Helianthus annuus), Russian thistle (Salsola kali) and velvetleaf (Abutilon theophrasti) were planted into a blend of loam soil and sand and treated preemergence with test chemicals formulated in a non-phytotoxic solvent mixture which included a surfactant. At the same time, plants selected from these crop and weed species and also barley (winter barley, Hordeum vulgare), […]), chickweed (common chickweed, Stellaria media), deadnettle (henbit deadnettle, Lamium amplexicaule), and canarygrass (littleseed canarygrass, Phalaris minor) were planted in pots containing Redi-Earth® planting medium (Scotts Company, 14111 Scottslawn Road, Marysville, Ohio 43041) comprising spaghnum peat moss, vermiculite, wetting agent and starter nutrients and treated with postemergence applications of test chemicals formulated in the same manner. Plants ranged in height from 2 to 18 cm (1- to 4-leaf stage) for postemergence treatments. Treated plants and controls were maintained in a greenhouse for 13 to 15 days, after which time all species were compared to controls and visually evaluated. Plant response ratings, summarized in Table C, are based on a scale of 0 to 100 where 0 is no effect and 100 is complete control. A dash (-) response means no test result.

Where [1] appears, read: Preemergence, 62 g ai/ha, scale 0 to 100.
[2] abbreviates: Preemergence, 125 g ai/ha, scale 0 to 100 (0 no effect, 100 complete control).
Setting [3] is: Postemergence, 31 g ai/ha, scale 0 (no effect) to 100 (complete control).
[4] abbreviates: Postemergence, 62 g ai/ha, scale 0 to 100 (0 no effect, 100 complete control).
Where [5] appears, read: Postemergence, 125 g ai/ha, scale 0 to 100 (0 no effect, 100 complete control).
The mark [6] stands for this setting: Postemergence, 250 g ai/ha, scale 0 to 100 (0 no effect, 100 complete control).
Setting [7] is: Postemergence, 31 g ai/ha, scale 0 to 100 (0 no effect, 100 complete control).
The mark [8] stands for this setting: Postemergence, 62 g ai/ha, scale 0 (no effect) to 100 (complete control).

With `O=C1NCC(c2ccc(F)c(F)c2)C1C(=O)Nc1ccccc1C(F)(F)F` (racemic) [Compound 6], the Plant response rating came to 0 in the assay with chickweed (Postemergence, 16 g ai/ha); 0 in the assay with chickweed (Postemergence, 31 g ai/ha); 0 in the assay with chickweed (Postemergence, 62 g ai/ha); 10 in the assay on chickweed (Postemergence, 125 g ai/ha); 30 with chickweed (Postemergence, 250 g ai/ha); 0 with bromegrass, downy (Postemergence, 16 g ai/ha). Moreover, the Plant response rating turned out to be 0 in the assay with bromegrass, downy (Postemergence, 31 g ai/ha); 0 in the assay on bromegrass, downy (Postemergence, 62 g ai/ha); 0 in the assay with bromegrass, downy (Postemergence, 125 g ai/ha); 0 in the assay on bromegrass, downy (Postemergence, 250 g ai/ha); 0 in the assay with bromegrass, downy (Preemergence, 125 g ai/ha); 10 in the assay with bromegrass, downy (Preemergence, 250 g ai/ha). Further, the “Plant response rating, Bromegrass, Downy” value came out at 0 in the assay with bromegrass, downy (Preemergence, 62 g ai/ha); 0 in the assay with bromegrass, downy (Preemergence, 16 g ai/ha); 0 with bromegrass, downy (Preemergence, 31 g ai/ha).
In the case of `O=C1NCC(c2ccc(Cl)c(Cl)c2)C1C(=O)Nc1ccccc1F` (racemic) [Compound 14], the “Plant response rating, Kochia” value in the assay with kochia (setting [1]) and in the assay with kochia (setting [2]) was 0 each time.
On to `O=C1NCC(c2ccc(F)c(C(F)(F)F)c2)C1C(=O)Nc1cccc(F)c1F` (racemic) [Compound 77], for which the “Plant response rating, Chickweed” value in the assay with chickweed (Preemergence, 62 g ai/ha) was 90; in the assay with chickweed (Preemergence, 31 g ai/ha), 75. The Plant response rating in the assay with chickweed (Preemergence, 125 g ai/ha) stood at 100; in the assay on chickweed (Preemergence, 250 g ai/ha), 100; in the assay on bromegrass, downy (Preemergence, 125 g ai/ha) it was 10; in the assay with bromegrass, downy (Preemergence, 250 g ai/ha), 25. The “Plant response rating, Bromegrass, Downy” value is reported as 0 in the assay with bromegrass, downy (Preemergence, 62 g ai/ha) and 0 in the assay on bromegrass, downy (Preemergence, 31 g ai/ha).
Take `Cc1c(F)cccc1NC(=O)C1C(=O)NCC1c1ccc(F)c(F)c1` (racemic) [Compound 106]: the “Plant response rating, Kochia” value in the assay with kochia (setting [3]) was determined as 0; with kochia (setting [4]) it was 40; in the assay with kochia (setting [5]), 30; with kochia (setting [6]), 35.
The like results for `Cc1ccccc1NC(=O)C1C(=O)NCC1c1cccc(C(F)(F)F)c1` (racemic) [Compound 109] were, in that order, 0, 0, 0 and 0.
Take `O=C1NCC(c2cc(F)c(F)c(F)c2)C1C(=O)Nc1cccc(F)c1F` (stereo not shown) [Compound 48]: the “Plant response rating, Kochia” value was determined as 0 in the assay on kochia (Postemergence, 16 g ai/ha, scale 0 to 100 (0 no effect, 100 complete control)); 10 in the assay on kochia (setting [3]); 10 with kochia (setting [4]); 20 with kochia (setting [5]); 10 with kochia (setting [1]); 10 in the assay with kochia (setting [2]). The “Plant response rating, Kochia” value in the assay on kochia (Preemergence, 16 g ai/ha, scale 0 to 100) was found to be 0.
As to `O=C1NCC(c2ccc(F)c(Cl)c2)C1C(=O)Nc1ccccc1F` (stereo not shown) [Compound 60], the “Plant response rating, Kochia” value in the assay on kochia (setting [3]) was determined as 0; with kochia (setting [4]), 10; in the assay on kochia (setting [5]), 45; with kochia (setting [1]) it was 0; in the assay with kochia (setting [2]), 0.
Regarding `O=C1NCC(c2cccc(OC(F)(F)F)c2)C1C(=O)Nc1ccccc1F` (stereo not shown) [Compound 69], in the assay on kochia (Preemergence, 31 g ai/ha, scale 0 to 100, 0 is no effect and 100 is complete control), the “Kochia plant response rating” value was determined as 0. Further, the “Plant response rating, Kochia” value in the assay on kochia (setting [1]) and with kochia (setting [2]) was 0 each time. Besides, the “Plant response rating (scale of 0 to 100), Kochia” value in the assay with kochia (Preemergence, 250 g ai/ha) was determined as 25.
`O=C1NCC(c2ccc(C(F)(F)F)cc2)C1C(=O)Nc1ccccc1F` (stereo not shown) [Compound 79, N-(2-fluorophenyl)-2-oxo-4-[4-(trifluoromethyl)phenyl]-3-pyrrolidinecarboxamide]: the “Plant response rating, Kochia” value in the assay with kochia (setting [3]) was determined as 5; in the assay with kochia (setting [4]) it was 55; in the assay on kochia (setting [5]), 55.
For the compound `O=C1NCC(c2cccc(OC(F)F)c2)C1C(=O)Nc1cccc(F)c1F` (stereo not shown) [Compound 224], the “Plant response rating, Kochia” value is 0 in the assay on kochia (setting [7]), 40 in the assay with kochia (setting [8]), 50 in the assay on kochia (setting [5]) and 70 with kochia (setting [6]).
On to `O=C1NCC(c2ccc(C(F)(F)F)cc2)C1C(=O)Nc1ccccc1F` (stereo not shown) [Compound 231], for which the Plant response rating is 25 in the assay with chickweed (Postemergence, 31 g ai/ha); 80 with chickweed (Postemergence, 62 g ai/ha); 80 in the assay with chickweed (Postemergence, 125 g ai/ha); 80 with chickweed (Postemergence, 250 g ai/ha); 90 with chickweed (Preemergence, 250 g ai/ha); 15 with bromegrass, downy (Postemergence, 31 g ai/ha). Also, the Plant response rating in the assay with bromegrass, downy (Postemergence, 62 g ai/ha) stood at 20; with bromegrass, downy (Postemergence, 125 g ai/ha) it was 25; with bromegrass, downy (Postemergence, 250 g ai/ha), 25; with bromegrass, downy (Preemergence, 250 g ai/ha), 15. Also, the “Plant response rating, Chickweed” value turned out to be 85 in the assay on chickweed (Preemergence, 62 g ai/ha); 95 in the assay on chickweed (Preemergence, 125 g ai/ha); 75 in the assay with chickweed (Preemergence, 31 g ai/ha). Moreover, the “Plant response rating, Bromegrass, Downy” value with bromegrass, downy (Preemergence, 62 g ai/ha) was found to be 0; in the assay on bromegrass, downy (Preemergence, 125 g ai/ha), 0; in the assay on bromegrass, downy (Preemergence, 31 g ai/ha) it was 0.
As to `O=C1NCC(c2cccc(Br)c2)C1C(=O)Nc1ccc(F)c(F)c1F` (stereo not shown) [Compound 310], the “Plant response rating, Kochia” value in the assay on kochia (setting [7]) was found to be 40; in the assay on kochia (setting [8]), 50; in the assay with kochia (setting [6]) it was 80.
In the case of `O=C1NCC(c2ccc(F)c(F)c2)C1C(=O)Nc1ccc(F)c(F)c1F` (stereo not shown) [Compound 346], the “Plant response rating, Kochia” value in the assay with kochia (setting [7]) amounted to 45; in the assay on kochia (setting [8]) it was 50; in the assay with kochia (setting [5]), 45; in the assay with kochia (setting [6]), 40.
